These results are taken from US7025992B2, “Pharmaceutical formulations” (priority 2001, dated 2006).

The conditions of series [1]: stated as known; cited from earlier work.
Series [2] in a line: Absorption (AUC) of cannabinoid and primary metabolite in blood after dosing. The following applies: after oropharyngeal (buccal) administration compared with sublingual.
Series [3] is described as follows: Stability on storage, assay as percentage of initial value. It counts as physicochemical. Particulars: for stability in the formulation (in words): conclusion from Table 5. The source says: The data are reported as percentage of initial assay value.
A further series concerns the target CB1 (Brain receptors) (Homo sapiens, UniProt P21554). Particulars: cited from earlier work.
A short description of series [4]: CBD given before THC, cognitive effects. It counts as in vivo. Particulars: CBD (or CBDV) administered before THC; not observed if THC is given before CBD.
For series [5] the following is noted: Table 3; Brown, 1998; cited from earlier work.
Series [6] in a line: Solubility of cannabinoids.
For series [7] the following is noted: Table 3 footnote; naïve patients may show postural hypotension, hypertension reported on prolonged usage; cited from earlier work.
The conditions of series [8]: Table 3 footnote; cited from earlier work.
Series [9] in a line: Pain relief, THC alone vs extract of cannabis. It counts as in vivo. The following applies: THC alone vs same quantity of THC given as an extract of cannabis.
The nature of series [10]: Analgesic effect of THCV vs THC. It counts as in vivo. Particulars: compared with THC.
Series [11] is described as follows: Subject reports on THCV (mood enhancement, hangover). It counts as in vivo. Particulars: compared with THC.

“Also recorded” adds a separate entry of the source.

Sequence of CB1 (Brain receptors) (P21554 whole entry, species assumed): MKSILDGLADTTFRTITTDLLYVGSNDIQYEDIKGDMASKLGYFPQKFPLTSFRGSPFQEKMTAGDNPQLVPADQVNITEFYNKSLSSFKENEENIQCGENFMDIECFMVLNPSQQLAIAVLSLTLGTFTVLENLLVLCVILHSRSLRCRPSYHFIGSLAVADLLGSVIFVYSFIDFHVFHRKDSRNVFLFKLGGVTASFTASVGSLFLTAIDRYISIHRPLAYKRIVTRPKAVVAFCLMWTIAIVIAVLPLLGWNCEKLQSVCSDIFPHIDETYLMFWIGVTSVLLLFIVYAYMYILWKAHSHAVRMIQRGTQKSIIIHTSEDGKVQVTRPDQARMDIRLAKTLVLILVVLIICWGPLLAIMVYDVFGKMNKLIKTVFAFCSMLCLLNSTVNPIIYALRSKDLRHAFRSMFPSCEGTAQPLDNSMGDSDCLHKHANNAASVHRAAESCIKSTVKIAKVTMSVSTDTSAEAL

As to `CCCCCc1cc(O)c2c(c1)OC(C)(C)[C@@H]1CCC(CO)=C[C@@H]21` [11 OH THC], the “psychoactivity relative to parent compound” value in series [1] is “possibly more psychoactive than the parent compound”. In addition, in series [2], the “reduction in the amount of 11 OH metabolite detected” value is reported as “approximately 25%”.

In the case of `C=C(C)[C@@H]1CCC(C)=C[C@H]1c1c(O)cc(CCCCC)cc1O` [CBD, cannabidiol], in series [3], the “stability in the formulation (in words)” value was “good stability”. In [3] (observation of the applicants), the “effect as pharmaceutical stabilizer” value was “able to act as a pharmaceutical stabilizer of pharmaceutical formulations and thus prolong shelf-life”. Besides, the “CB1 (Brain receptors)” value at CB1 (Brain receptors) is “∀”. Moreover, in series [4], the “psychoactive effects of THC” value is listed as “diminished”; the subsequent sedation result is “postponed and mitigated”. For the same compound, in [5], the Anti-inflammatory entry is given as “∀”. The “solubility in aqueous excipients” value in series [6] is recorded as “very low solubility”.

Turning to `C=C(C)[C@@H]1CCC(C)=C[C@H]1c1c(O)cc(CCC)cc1O` [CBDV, cannabidivarin], in series [4], the “psychoactive effects of THC” value is recorded as “diminished”; the subsequent sedation result is “postponed and mitigated”.

Take `CCCCCc1cc(O)c2c(c1)OC(C)(C)[C@@H]1CCC(C)=C[C@@H]21` [THC, Δ^9-tetrahydrocannabinol]: the “stability in the formulation (in words)” value in series [3] is recorded as “less stable”. Further, in series [7], the “effect on blood pressure (footnote ′)” value was “′ THC has a biphasic effect on blood pressure; in naïve patients it may produce postural hypotension and it has also been reported to produce hypertension on prolonged usage. GW Internal Report No 002/000159”. In addition, in [5], the Anti-inflammatory result is given as “∀”. In addition, the “convulsant effect (footnote H to Anticonvulsant)” value in series [8] is on record as “H THC is pro convulsant”. Besides, the “solubility in aqueous excipients” value in series [6] is “very low solubility”. For the same compound, the “amount of THC that could be stabilised” value in series [6] (aerosol sprays containing ethanol plus a propellant) was 0.7 mg of THC per 0.1 ml of liquid formulation. In addition, the “degree of pain relief” value in [9] is “lower degree of pain relief than the same quantity of THC given as an extract of cannabis”.

As for `CCCc1cc(O)c2c(c1)OC(C)(C)[C@@H]1CCC(C)=C[C@@H]21` [THCV, tetrahydrocannabinovarin], the “analgesic effect, speed” value in [10] is given as “more rapid analgesic effect than THC”. Besides, in [11], the hangover entry is reported as “less severe hangover; also recorded: reduced potential for hangover”. Further, the mood enhancement result in [11] (reported by subjects taking THCV) is “less disturbing than that produced by THC”.
